Data reported in PubChem BioAssay AID1963849 (Molecular Pharmacology Branch, DTP, NCI, 2024).

Tested on: 299254-011-R-J1-PDC complex spheroid viability
Assay: Anticancer human tumor 299254-011-R-J1-PDC patient-derived melanoma cell line growth inhibition [POLQ]
Conditions: for IC50: curve of first compound; for viability, T/C: stronger effect = lower value
Summary of the method: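 PDC + HUVEC + MSC complex spheroids; POLQ inhibitors ± partner drugs; top conc. at/near clinical Cmax, else 10 microM (SN-38 1 microM), half-log dilutions; 37 degrees C, 5% CO2.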

[1] = second compound 0.0316 µM, first compound 0.0316 µM
[2] = second compound 0.0316 µM, first compound 0.1 µM
[3] = second compound 0.0316 µM, first compound 0.316 µM
[4] = second compound 0.0316 µM, first compound 1 µM
[5] = second compound 0.0316 µM, first compound 3.16 µM
[6] = second compound 0.0316 µM, first compound 10 µM
[7] = second compound 0.1 µM, first compound 0.0316 µM
[8] = second compound 0.1 µM, first compound 0.1 µM
[9] = second compound 0.1 µM, first compound 0.316 µM
[10] = second compound 0.1 µM, first compound 1 µM
[11] = second compound 0.1 µM, first compound 3.16 µM
[12] = second compound 0.1 µM, first compound 10 µM
[13] = second compound 0.316 µM, first compound 0.0316 µM
[14] = second compound 0.316 µM, first compound 0.1 µM
[15] = second compound 0.316 µM, first compound 0.316 µM
[16] = second compound 0.316 µM, first compound 1 µM
[17] = second compound 0.316 µM, first compound 3.16 µM
[18] = second compound 0.316 µM, first compound 10 µM
[19] = second compound 1 µM, first compound 0.0316 µM
[20] = second compound 1 µM, first compound 0.1 µM
[21] = second compound 1 µM, first compound 0.316 µM
[22] = second compound 1 µM, first compound 1 µM
[23] = second compound 1 µM, first compound 3.16 µM
[24] = second compound 1 µM, first compound 10 µM
[25] = second compound 3.16 µM, first compound 0.0316 µM
[26] = second compound 3.16 µM, first compound 0.1 µM
[27] = second compound 3.16 µM, first compound 0.316 µM
[28] = second compound 3.16 µM, first compound 1 µM
[29] = second compound 3.16 µM, first compound 3.16 µM
[30] = second compound 3.16 µM, first compound 10 µM
[31] = second compound 10 µM, first compound 0.0316 µM
[32] = second compound 10 µM, first compound 0.1 µM
[33] = second compound 10 µM, first compound 0.316 µM
[34] = second compound 10 µM, first compound 1 µM
[35] = second compound 10 µM, first compound 3.16 µM
[36] = second compound 10 µM, first compound 10 µM
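Further: spheroids exposed to drugs for one week before measurement.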
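Wherever viability, T/C is given: percent viability relative to DMSO vehicle control taken as 100%.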

CCCS(=O)(=O)Nc1ccc(F)c(C(=O)c2c[nH]c3ncc(-c4ccc(Cl)cc4)cc23)c1F + Nc1ccc(C#CCN(C(=O)Cc2ncc(C(F)(F)F)cc2C(F)(F)F)c2ccc(F)cc2)nn1
IC50 (second compound 0.0316 µM): 9.62 µM | IC50 (second compound 0.1 µM): 9.01 µM | IC50 (second compound 0.316 µM): 9.95 µM | IC50 (second compound 1 µM): 8.98 µM | IC50 (second compound 3.16 µM): > 10 µM | IC50 (second compound 10 µM): > 10 µM | viability, T/C [1]: 109% | viability, T/C [2]: 128% | viability, T/C [3]: 122% | viability, T/C [4]: 120% | viability, T/C [5]: 108% | viability, T/C [6]: 47.8% | viability, T/C [7]: 92.7% | viability, T/C [8]: 117% | viability, T/C [9]: 119% | viability, T/C [10]: 110% | viability, T/C [11]: 104% | viability, T/C [12]: 44.6% | viability, T/C [13]: 97.5% | viability, T/C [14]: 93.5% | viability, T/C [15]: 112% | viability, T/C [16]: 111% | viability, T/C [17]: 129% | viability, T/C [18]: 49.7% | viability, T/C [19]: 97.3% | viability, T/C [20]: 99.2% | viability, T/C [21]: 106% | viability, T/C [22]: 121% | viability, T/C [23]: 122% | viability, T/C [24]: 43.8% | viability, T/C [25]: 108% | viability, T/C [26]: 140% | viability, T/C [27]: 140% | viability, T/C [28]: 101% | viability, T/C [29]: 106% | viability, T/C [30]: 50.7% | viability, T/C [31]: 94.8% | viability, T/C [32]: 98.6% | viability, T/C [33]: 109% | viability, T/C [34]: 102% | viability, T/C [35]: 98.5% | viability, T/C [36]: 57%

CNCc1ccc(-c2[nH]c3cc(F)cc4c3c2CCNC4=O)cc1 + Cc1cccc(N(C)C(=O)C2C(O)CCN2c2nc(C)cc(C(F)(F)F)c2C#N)c1
IC50 (second compound 0.0316 µM): > 10 µM | IC50 (second compound 0.1 µM): > 10 µM | IC50 (second compound 0.316 µM): > 10 µM | IC50 (second compound 1 µM): > 10 µM | IC50 (second compound 3.16 µM): > 10 µM | IC50 (second compound 10 µM): > 10 µM | viability, T/C [1]: 101% | viability, T/C [2]: 100% | viability, T/C [3]: 104% | viability, T/C [4]: 109% | viability, T/C [5]: 104% | viability, T/C [6]: 136% | viability, T/C [7]: 102% | viability, T/C [8]: 105% | viability, T/C [9]: 110% | viability, T/C [10]: 112% | viability, T/C [11]: 112% | viability, T/C [12]: 118% | viability, T/C [13]: 109% | viability, T/C [14]: 110% | viability, T/C [15]: 98.1% | viability, T/C [16]: 108% | viability, T/C [17]: 130% | viability, T/C [18]: 116% | viability, T/C [19]: 107% | viability, T/C [20]: 109% | viability, T/C [21]: 98.3% | viability, T/C [22]: 103% | viability, T/C [23]: 119% | viability, T/C [24]: 118% | viability, T/C [25]: 120% | viability, T/C [26]: 110% | viability, T/C [27]: 117% | viability, T/C [28]: 109% | viability, T/C [29]: 112% | viability, T/C [30]: 119% | viability, T/C [31]: 113% | viability, T/C [32]: 98.5% | viability, T/C [33]: 96.8% | viability, T/C [34]: 97% | viability, T/C [35]: 108% | viability, T/C [36]: 118%
